Laboratory results as given in paper PMC9264368, “Structural Analysis and Development of Notum Fragment Screening Hits” (ACS Chemical Neuroscience, 2022).
Like-named read-outs stand apart in the source and are kept apart here.

Experiments:
[1] = target: T1, Notum (Homo sapiens, UniProt Q6P988, C330S); conditions: for fold improvement in Notum inhibition: versus parent: 7 vs 26, 16a vs 16, 15a vs 15, 7c vs 7b; for IC50: read-out: Notum IC50, Table S1, mean ± s.d. of N = 2-4 unless stated; for LE (ligand efficiency): LE = 1.4(−pIC50)/HAC; for LLE (lipophilic ligand efficiency): LLE = pIC50 – clogP; for LE / LLE: supplementary CSV
T1 sequence (Q6P988 81-451 C330S): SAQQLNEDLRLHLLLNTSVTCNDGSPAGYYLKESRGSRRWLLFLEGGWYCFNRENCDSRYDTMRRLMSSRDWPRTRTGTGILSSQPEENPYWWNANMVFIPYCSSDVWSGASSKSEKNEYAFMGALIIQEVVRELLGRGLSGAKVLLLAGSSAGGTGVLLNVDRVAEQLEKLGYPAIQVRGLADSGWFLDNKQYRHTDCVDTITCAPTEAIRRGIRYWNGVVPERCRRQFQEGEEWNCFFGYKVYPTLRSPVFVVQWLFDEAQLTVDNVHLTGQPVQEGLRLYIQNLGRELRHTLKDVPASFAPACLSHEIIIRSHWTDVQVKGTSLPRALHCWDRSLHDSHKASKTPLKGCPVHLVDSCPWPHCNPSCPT

[2] = target: T1, Notum; assay: biochemical
[3] = Notum IC50, OPTS substrate, 10-point curves 30 nM to 1 mM, mean ± s.d. of N = 2–4 unless stated, Table 1 and figures
[4] = IC50 (µM), supplementary CSV, Notum IC50 values for 1–58
[5] = pIC50, Table 1, Notum OPTS assay

Structure (SMILES)	IC50 [2, 3] [µM]	LE (ligand efficiency) [1]	LLE (lipophilic ligand efficiency) [1]	LE [1]	LLE [1]	other results
OCc1cn(-c2ccc(Cl)c(C(F)(F)F)c2Cl)nn1 [7c]						fold improvement in Notum inhibition [1]: 7 fold
Cn1c(NC#N)nc2ccccc21 [15b]						IC50 [1]: 5 ± 0.77 µM
N#CNc1nc2c(Cl)cccc2[nH]1 [15c]						IC50 [1]: 2.2 ± 0.31 µM
N#CNc1nc2c(Br)cccc2[nH]1 [15d]						IC50 [1]: 2.3 ± 0.54 µM
N#CNc1nc2c(C(F)(F)F)cccc2[nH]1 [15e]						IC50 [1]: 12 ± 1.4 µM
COc1cccc2[nH]c(NC#N)nc12 [15f]						IC50 [1]: 14 ± 1.3 µM
Cc1ccc2[nH]c(NC#N)nc2c1 [15g]						IC50 [1]: 100 ± 4.4 µM
N#CNc1nc2cc(Cl)ccc2[nH]1 [15h]						IC50 [1]: 29 ± 16 µM
N#CNc1nc2cc(Br)ccc2[nH]1 [15i]						IC50 [1]: 15 ± 3.7 µM
N#CNc1nc2cc(C(F)(F)F)ccc2[nH]1 [15j]						IC50 [1]: 36 ± 5.7 µM
Cc1cccc2c1nc(NC#N)n2C [15k]						IC50 [1]: 9.3 ± 3.8 µM
Cc1cccc2nc(NC#N)n(C)c12 [15l]						IC50 [1]: 2.2 ± 0.48 µM
Cc1ccc2[nH]c(NC#N)nc2c1C [15m]						IC50 [1]: 18 ± 5.1 µM
CCNC(=O)Nc1cc(C)on1 [compound 1]	> 1000					IC50 [2, 4]: > 1000 µM
CC(=O)Nc1cccc2nonc12 [compound 2]	140 ± 31	0.42	2.5	0.42	2.5	
OCc1ccc(-n2cnc3ccccc32)cc1 [compound 4, [4-(1H-1,3-Benzimidazol-1-yl-)phenyl]methanol]	54 ± 16	0.35	1.7	0.35	1.7	
c1cnc(Oc2ccc(-c3cc[nH]n3)cc2)nc1 [compound 5, 2-[4-(1H-Pyrazol-3-yl)phenoxy]pyrimidine]	480 ± 82	0.25	1.3	0.25	1.3	
COC(=O)c1ccccc1Oc1ccc(N)cc1 [compound 6, Methyl 2-(4-aminophenoxy)benzoate]	260 ± 120	0.28	0.9	0.28	0.9	
O=C(NCCc1ccncc1)NC1CCCCC1 [compound 9]	> 1000					IC50 [2, 4]: > 1000 µM
Cc1nc2ccccn2c1C(=O)NCC(C)C [compound 10]	700 ± 100	0.26	0.6	0.26	0.6	
Nc1ccc(S(=O)(=O)Nc2ccccn2)cc1 [compound 11, 4-Amino-N-(2-pyridin-2-yl)benzenesulfonamide]	> 1000					IC50 [2, 4]: > 1000 µM
N#Cc1ccc(Cn2cnc3ccccc32)cc1 [compound 12, 4-(Benzimidazol-1-ylmethyl)benzonitrile]	570 ± 20	0.25	0.7	0.25	0.7	
Nc1ccccc1OCc1ccccc1 [compound 13, 2-(Benzyloxy)aniline]	280 ± 110	0.33	0.6	0.33	0.6	
O=C(O)Cc1ccc(-c2ccccc2)cc1 [compound 14, 2-[(1,1’-Biphenyl)-4-yl]acetic acid]	58 ± 8.2	0.33	0.9	0.33	0.9	
N#CNc1nc2ccccc2[nH]1 [compound 15]	17 ± 0.9	0.56	3.5		3.5	
Oc1c(F)cc(F)cc1-c1cc[nH]n1 [compound 16]	3.3 ± 0.4	0.55	3.6	0.55	3.6	IC50 [2, 5]: 3.16 µM

Structure (SMILES)	IC50 [2, 3] [µM]	LE (ligand efficiency) [1]	LLE (lipophilic ligand efficiency) [1]	LE [1]	LLE [1]	other results
COc1ccc(-c2cc[nH]n2)c(O)c1 [compound 17]	34 ± 5.7	0.51	2.9	0.51	2.9	IC50 [2, 5]: 31.6 µM
Nc1ccc(NCc2cccnc2)c(C(=O)O)c1 [compound 18]	63 ± 12	0.32	3.0	0.32	3	
C[C@H]1CCCCN1C(=O)N1CCOCC1 [compound 19]	750 ± 17	0.29	1.2	0.29	1.2	
Nc1nonc1N1CCCCC1 [compound 20]	110 ± 21	0.46	2.7	0.46	2.7	IC50 [2, 5]: 126 µM
Cc1ccc(CN(C)Cc2ccccc2)o1 [compound 21]	930 ± 69	0.26	-0.4	0.26	-0.4	
CCOc1cccc(-c2nnc(N)s2)c1 [compound 22]	93 ± 7	0.38	1.8	0.38	1.8	IC50 [2, 5]: 100 µM
N#CCN1CCN(c2cccc(Cl)c2)CC1 [compound 23]	600 ± 59	0.28	0.7		0.7	
NCc1cc(-c2ccccc2)no1 [compound 24]	12 ± 3.2	0.53	3.7	0.53	3.7	
CC(=O)Nc1ccc(Nc2ccccc2)cc1 [compound 25, N-(4-Anilinophenyl)acetamide]	86 ± 21	0.36	1.6	0.36	1.6	
CC(=O)Nc1ccc(OCC(=O)O)cc1 [compound 27, (4-Acetamidophenoxy)acetic acid]	> 1000					IC50 [2, 4]: > 1000 µM
c1ccc(CNCc2ccc3c(c2)OCO3)nc1 [compound 28, 1-(Benzo[d][1,3]dioxol-5-yl)-N-(pyridine-2-ylmethyl)methanamine]	54 ± 6.2	0.33	3.2	0.33	3.2	
O=C(NO)OCc1ccccc1 [compound 29, Benzyl N-hydroxycarbamate]						response in fluorescence in Notum OPTS assay ([1]; at higher concentrations (>100 μM), likely assay interference): variable, supramaxial responses in fluoresence
O=S1(=O)CCN(Cc2ccco2)CC1 [compound 30]	> 1000					IC50 [2, 4]: > 1000 µM
CCc1ccc(OCC(=O)N2CCCCC2)cc1 [compound 31]	120 ± 30	0.30	0.7	0.3	0.7	
c1cc2c(cc1CNC[C@H]1CCCO1)OCO2 [compound 32]	~1000	0.25	0.9	0.25	0.9	IC50 [2, 4]: 1000 µM
Nc1ccccc1Nc1ccccn1 [compound 33]	500 ± 64	0.33	1.6	0.33	1.6	
NNC(=O)c1ccccc1OCc1ccccc1 [compound 34]	330 ± 11	0.27	1.4	0.27	1.4	
COCC(=O)Nc1nc(-c2ccccc2)cs1 [compound 35]	120 ± 24	0.32	1.6	0.32	1.6	
Cl.Oc1c(CN2CCOCC2)ccc2ccccc12 [compound 37]	58 ± 19	0.33	1.9	0.33	1.9	
CC1CCN(Cc2c[nH]c3ccccc23)CC1 [compound 38]	120 ± 49	0.32	0.2	0.32	0.2	
O=C(O)COc1ccc(N2C(=O)CCC2=O)cc1 [compound 39]	> 1000					IC50 [2, 4]: > 1000 µM
CCC(=O)Nc1ccc(C)cc1O [compound 42]	> 1000					IC50 [2, 4]: > 1000 µM
CCOc1ccc(CC(=O)O)cc1 [compound 48]	> 1000					IC50 [2, 4]: > 1000 µM
O=C(O)COCc1ccccc1 [compound 52]	> 1000					IC50 ([2]; IC50 (µM)): > 1000 µM
O=C1CN(C(=O)COc2ccccc2)CCN1 [compound 56]	> 100					IC50 [2, 4]: > 100 µM

More lines, main results first:

IC50 [2, 3] [µM]	LE (ligand efficiency) [1]	LLE (lipophilic ligand efficiency) [1]	LE [1]	LLE [1]	Structure (SMILES)	other results
0.94 ± 0.06					Cc1cccc2[nH]c(NC#N)nc12 [15a, N-(4-Methyl-1H-benzo[d]imidazol-2-yl)cyanamide]	fold improvement in Notum inhibition [1]: 18 fold
1.4 ± 0.1					FC(F)(F)c1cc(-c2cc[nH]n2)ccc1Cl [16a]	fold improvement in Notum inhibition [1]: 2.3 fold
16 ± 1.5					FC(F)(F)c1cc(CNCc2ccc3c(c2)OCO3)ccc1Cl [28a, 1-(Benzo[d][1,3]dioxol-5-yl)-N-(4-chloro-3-(trifluoromethyl)benzyl)methanamine]	
